Key:
Assay type in all cases: biochemical
metalloelastase (MMP-12) = metalloelastase (MMP-12) (Homo sapiens, UniProt P39900); experiment: MMP-12 enzyme inhibition assay (coumarin-labelled peptide substrate); conditions: read-out: IC50 MMP12
Method in brief: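 Recombinant human MMP-12 assayed per the MMP-9 protocol: Tris-HCl pH 7.6 buffer with NaCl, CaCl2, Brij 35; McaPLGLDpaAR substrate, compounds 100 μM–5.1 nM in duplicate, 2 h at 37° C. Fluorescence read at 405 nm (320 nm excitation) without stopping; IC50 from four-parameter fit.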

MMP-14 = MMP-14 (Homo sapiens, UniProt P50281); experiment: MMP-14 enzyme inhibition assay (coumarin-labelled peptide substrate); conditions: read-out: percentage inhibition MMP14
Method in brief: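 Recombinant human enzyme, APMA-activated if necessary, was incubated with McaPLGLDpaAR substrate and compound (10 concentrations in duplicate, 100 μM to 5.1 nM) in Tris-HCl pH 7.6 with NaCl, CaCl2 and Brij 35 for 2 h at 37 °C. Fluorescence was read at 320/405 nm, and IC50 was taken from a four-parameter fit.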

gelatinase A (MMP-2) = molecular target: T1, gelatinase A (MMP-2) (Homo sapiens, UniProt P08253); experiment: MMP-2 enzyme inhibition assay (coumarin-labelled peptide substrate); conditions: read-out: IC50 MMP2
T1 sequence (P08253 110-660): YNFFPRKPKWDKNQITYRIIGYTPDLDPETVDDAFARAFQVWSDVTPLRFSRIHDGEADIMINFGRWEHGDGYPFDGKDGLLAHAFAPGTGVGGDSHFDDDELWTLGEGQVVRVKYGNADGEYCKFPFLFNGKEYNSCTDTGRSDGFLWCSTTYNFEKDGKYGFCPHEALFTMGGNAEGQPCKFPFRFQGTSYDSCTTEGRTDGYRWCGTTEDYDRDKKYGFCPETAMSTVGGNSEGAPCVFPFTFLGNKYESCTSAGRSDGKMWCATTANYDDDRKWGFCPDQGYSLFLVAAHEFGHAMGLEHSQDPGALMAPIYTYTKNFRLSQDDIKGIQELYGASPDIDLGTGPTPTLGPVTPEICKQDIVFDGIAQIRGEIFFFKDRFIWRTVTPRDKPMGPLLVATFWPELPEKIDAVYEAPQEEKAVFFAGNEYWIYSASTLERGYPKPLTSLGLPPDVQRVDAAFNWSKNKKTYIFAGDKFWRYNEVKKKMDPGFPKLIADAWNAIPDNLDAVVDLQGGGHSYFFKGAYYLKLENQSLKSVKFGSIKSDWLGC
Method in brief: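 Recombinant human MMP-2, APMA-activated if necessary, run as for the MMP-9 protocol: McaPLGLDpaAR substrate (8 μM working dilution) in 100 mM Tris-HCl pH 7.6, 100 mM NaCl, 10 mM CaCl2, 0.05% Brij 35; ten 3-fold concentrations (100 μM–5.1 nM) in duplicate, 2 h at 37° C. Fluorescence ex 320/em 405 nm, unstopped; IC50 from four-parameter fit.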

Sequence of metalloelastase (MMP-12) (P39900 106-470): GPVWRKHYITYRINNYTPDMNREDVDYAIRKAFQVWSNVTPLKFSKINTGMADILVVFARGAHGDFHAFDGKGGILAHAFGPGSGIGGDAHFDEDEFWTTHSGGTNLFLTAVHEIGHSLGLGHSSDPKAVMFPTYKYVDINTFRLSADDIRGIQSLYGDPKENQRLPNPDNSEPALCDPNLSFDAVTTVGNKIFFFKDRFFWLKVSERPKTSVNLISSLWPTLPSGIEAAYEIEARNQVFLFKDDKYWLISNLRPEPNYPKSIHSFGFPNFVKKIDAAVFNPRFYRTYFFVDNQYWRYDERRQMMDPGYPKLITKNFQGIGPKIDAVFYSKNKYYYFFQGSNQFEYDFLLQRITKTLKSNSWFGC

With O=CN(O)C(CS(=O)(=O)N1CCc2cc(C(F)(F)F)ccc2C1)[C@H]1CCCO1 (stereo partly drawn) [Example 47, N-hydroxy-N-(1-[(2R)-tetrahydrofuran-2-yl]-2-{[6-(tri-fluoromethyl)-3,4-dihydroisoquinolin-2(1H)-yl]sulfonyl}ethyl)formamide] the IC50 (metalloelastase (MMP-12)) was 2.5 nM, the inhibition at 0.1 µM (MMP-14) was 7% and the inhibition at 5 µM (MMP-14) was 79%. For the same compound, the IC50 (gelatinase A (MMP-2)) was 33 nM.
Compound O=CN(O)C(CCO)CS(=O)(=O)N1CCc2ccc(Cl)cc2C1 (stereo not shown) [Example 48, N-(1-{[(7-chloro-3,4-dihydroisoquinolin-2(1H)-yl)sulfonyl]-methyl}-3-hydroxypropyl)-N-hydroxyformamide] has an IC50 (metalloelastase (MMP-12)) of 46 nM, an inhibition at 5 µM (MMP-14) of 41% and an IC50 (gelatinase A (MMP-2)) of 77 nM.
Work on O=CN(O)C(CO)CS(=O)(=O)N1CCc2cc(Cl)c(Cl)cc2C1 (stereo not shown) [Example 49, N-[2-[(6,7-dichloro-3,4-dihydroisoquinolin-2(1H)-yl)-sulfonyl]-1-(hydroxymethyl)ethyl]-N-hydroxyformamide] yielded an IC50 (metalloelastase (MMP-12)) of 5.5 nM, an inhibition at 0.1 µM (MMP-14) of 14% and an inhibition at 5 µM (MMP-14) of 86%. The IC50 (gelatinase A (MMP-2)) was 11 nM.
CC(C)C(CS(=O)(=O)N1CCc2ccc(-c3ccc(F)cc3)cc2C1)N(O)C=O (stereo not shown) [Example 50, N-[1-({[7-(4-fluorophenyl)-3,4-dihydroisoquinolin-2(1H)-yl]sulfonyl}methyl)-2-methylpropyl]-N-hydroxyformamide] showed an IC50 (metalloelastase (MMP-12)) of 3.5 nM, an inhibition at 0.1 µM (MMP-14) of 13% and an inhibition at 5 µM (MMP-14) of 83%. It also gave an IC50 (gelatinase A (MMP-2)) of 90 nM.
O=CN(O)C(CS(=O)(=O)N1CCc2ccc(F)cc2C1)c1ccoc1 (stereo not shown) [Example 52, N-[2-[(7-fluoro-3,4-dihydroisoquinolin-2(1H)-yl)sulfonyl]-1-(3-furyl)ethyl]-N-hydroxyformamide] gave an IC50 (metalloelastase (MMP-12)) of 46 nM, an inhibition at 5 µM (MMP-14) of 49% and an IC50 (gelatinase A (MMP-2)) of 298 nM.
O=CN(O)C(CS(=O)(=O)N1CCc2ccc(F)cc2C1)C1CCN(Cc2ccccc2)CC1 (stereo not shown) [Example 53, N-{1-(1-benzylpiperidin-4-yl)-2-[(7-fluoro-3,4-dihydro-isoquinolin-2(1H)-yl)sulfonyl]ethyl}-N-hydroxyformamide] gave an IC50 (metalloelastase (MMP-12)) of 106 nM, an inhibition at 5 µM (MMP-14) of 34% and an IC50 (gelatinase A (MMP-2)) of 298 nM.
CC(C)CC(CS(=O)(=O)N1CCc2ccc(Br)cc2C1)N(O)C=O (stereo not shown) [Example 55, N-(1-{[(7-bromo-3,4-dihydroisoquinolin-2(1H)-yl)-sulfonyl]methyl}-3-methylbutyl)-N-hydroxyformamide] was tested, and the IC50 (metalloelastase (MMP-12)) was 6 nM, the inhibition at 0.1 µM (MMP-14) was 19% and the inhibition at 5 µM (MMP-14) was 86%. The IC50 (gelatinase A (MMP-2)) was 24 nM.
Compound CC(C)(CS(=O)(=O)N1CCc2ccc(Br)cc2C1)N(O)C=O [Example 56, N-{2-[(7-bromo-3,4-dihydroisoquinolin-2(1H)-yl)sulfonyl]-1,1-dimethylethyl}-N-hydroxyformamide] has an IC50 (metalloelastase (MMP-12)) of 51 nM, an inhibition at 5 µM (MMP-14) of 48% and an IC50 (gelatinase A (MMP-2)) of 190 nM.
In the case of CC(C)(C)c1ccc2c(c1)CN(S(=O)(=O)CC(COCc1ccccc1)N(O)C=O)CC2 (stereo not shown) [Example 57, N-(2-(benzyloxy)-1-{[(7-tert-butyl-3,4-dihydroisoquinolin-2(1H)-yl)sulfonyl]methyl}ethyl)-N-hydroxyformamide], the IC50 (metalloelastase (MMP-12)) is reported as 117 nM, the inhibition at 5 µM (MMP-14) is reported as 0% and the IC50 (gelatinase A (MMP-2)) is reported as > 5000 nM.
O=CN(O)C(COCc1ccccc1)CS(=O)(=O)N1CCc2ccc(Cl)cc2C1 (stereo not shown) [Example 58, N-(2-(benzyloxy)-1-{[(7-chloro-3,4-dihydroisoquinolin-2(1H)-yl)sulfonyl]methyl}ethyl)-N-hydroxyformamide] showed an IC50 (metalloelastase (MMP-12)) of 4.5 nM, an inhibition at 0.1 µM (MMP-14) of 11% and an inhibition at 5 µM (MMP-14) of 79%. The IC50 (gelatinase A (MMP-2)) was 20 nM.
O=CN(O)C(COCc1ccccc1)CS(=O)(=O)N1CCc2ccc(C(F)(F)F)cc2C1 (stereo not shown) [Example 59, N-[2-(benzyloxy)-1-({[7-(trifluoromethyl)-3,4-dihydro-isoquinolin-2(1H)-yl]sulfonyl}methyl)ethyl]-N-hydroxyformamide] gave an IC50 (metalloelastase (MMP-12)) of 7.5 nM, an inhibition at 5 µM (MMP-14) of 43% and an IC50 (gelatinase A (MMP-2)) of 83 nM.
O=CN(O)C(CS(=O)(=O)N1CCc2ccc(F)cc2C1)C1CCCC1 (stereo not shown) [Example 60, N-{1-cyclopentyl-2-[(7-fluoro-3,4-dihydroisoquinolin-2(1H)-yl)sulfonyl]ethyl}-N-hydroxyformamide] gave an IC50 (metalloelastase (MMP-12)) of 69 nM, an inhibition at 5 µM (MMP-14) of 16% and an IC50 (gelatinase A (MMP-2)) of 411 nM.
O=CN(O)C(COc1ccccc1)CS(=O)(=O)N1CCc2ccc(Cl)cc2C1 (stereo not shown) [Example 61, N-[2-[(7-chloro-3,4-dihydroisoquinolin-2(1H)-yl)sulfonyl]-1-(phenoxymethyl)ethyl]-N-hydroxyformamide] gave an IC50 (metalloelastase (MMP-12)) of 15 nM, an inhibition at 5 µM (MMP-14) of 43% and an IC50 (gelatinase A (MMP-2)) of 38 nM.
O=CN(O)C1(CS(=O)(=O)N2CCc3ccc(Cl)cc3C2)CCCC1 [Example 62, N-(1-{[(7-chloro-3,4-dihydroisoquinolin-2(1H)-yl)-sulfonyl]methyl}cyclopentyl)-N-hydroxyformamide] was tested, and the IC50 (metalloelastase (MMP-12)) was 36 nM, the inhibition at 5 µM (MMP-14) was 75% and the IC50 (gelatinase A (MMP-2)) was 293 nM.
For CCCCCC(C)(C)C(CS(=O)(=O)N1CCc2cc(C(F)(F)F)ccc2C1)N(O)C=O (stereo not shown) [Example 63, N-[2,2-dimethyl-1-({[6-(trifluoromethyl)-3,4-dihydro-isoquinolin-2(1H)-yl]sulfonyl}methyl)heptyl]-N-hydroxyformamide], the IC50 (metalloelastase (MMP-12)) was 88 nM, the inhibition at 5 µM (MMP-14) was 9% and the IC50 (gelatinase A (MMP-2)) was > 5000 nM.
O=CN(O)C(CS(=O)(=O)N1CCc2ccc(Br)cc2C1)C1CCCC1 (stereo not shown) [Example 64, N-{2-[(7-bromo-3,4-dihydroisoquinolin-2(1H)-yl)sulfonyl]-1-cyclopentylethyl}-N-hydroxyformamide] gave an IC50 (metalloelastase (MMP-12)) of 7.9 nM, an inhibition at 5 µM (MMP-14) of 71% and an IC50 (gelatinase A (MMP-2)) of 42 nM.
CC(C)(C)C(CS(=O)(=O)N1CCc2ccc(Cl)cc2C1)N(O)C=O (stereo not shown) [Example 65, N-(1-{[(7-chloro-3,4-dihydroisoquinolin-2(1H)-yl)sulfonyl]methyl}-2,2-dimethylpropyl)-N-hydroxyformamide] showed an IC50 (metalloelastase (MMP-12)) of 27 nM, an inhibition at 5 µM (MMP-14) of 50% and an IC50 (gelatinase A (MMP-2)) of 277 nM.
Work on O=CN(O)C(CS(=O)(=O)N1CCc2ccc(-c3ccsc3)cc2C1)C1CCCC1 (stereo not shown) [Example 68, N-(1-cyclopentyl-2-{[7-(3-thienyl)-3,4-dihydroisoquinolin-2(1H)-yl]sulfonyl}ethyl)-N-hydroxyformamide] yielded an IC50 (metalloelastase (MMP-12)) of 9 nM, an inhibition at 0.1 µM (MMP-14) of -30% and an inhibition at 5 µM (MMP-14) of 99%. The IC50 (gelatinase A (MMP-2)) was 221 nM.
O=CN(O)C(CS(=O)(=O)N1CCc2ccc(-c3ccccc3)cc2C1)C1CCCC1 (stereo not shown) [Example 69, N-{1-cyclopentyl-2-[(7-phenyl-3,4-dihydroisoquinolin-2(1H)-yl)sulfonyl]ethyl}-N-hydroxyformamide] gave an IC50 (metalloelastase (MMP-12)) of 18 nM, an inhibition at 5 µM (MMP-14) of 63% and an IC50 (gelatinase A (MMP-2)) of 527 nM.
O=CN(O)C(CS(=O)(=O)N1CCc2ccc(-c3cccc(O)c3)cc2C1)C1CCCC1 (stereo not shown) [Example 70, N-(1-cyclopentyl-2-{[7-(3-hydroxyphenyl)-3,4-dihydroisoquinolin-2(1H)-yl]sulfonyl}ethyl)-N-hydroxyformamide] gave an IC50 (metalloelastase (MMP-12)) of 41 nM, an inhibition at 5 µM (MMP-14) of 27% and an IC50 (gelatinase A (MMP-2)) of 1560 nM.
Compound O=CN(O)C(CS(=O)(=O)N1Cc2ccccc2C1)C1CC1 (stereo not shown) [Example 72, N-[1-cyclopropyl-2-(1,3-dihydro-2H-isoindol-2-ylsulfonyl)-ethyl]-N-hydroxyformamide] has an IC50 (metalloelastase (MMP-12)) of 20 nM, an inhibition at 5 µM (MMP-14) of 63% and an IC50 (gelatinase A (MMP-2)) of 510 nM.
Work on O=CN(O)C(CS(=O)(=O)N1CCc2ccc(Cl)cc2C1)C1CC1 (stereo not shown) [Example 73, N-{2-[(7-chloro-3,4-dihydroisoquinolin-2(1H)-yl)sulfonyl]-1-cyclopropylethyl}-N-hydroxyformamide] yielded an IC50 (metalloelastase (MMP-12)) of 45 nM, an inhibition at 5 µM (MMP-14) of 40% and an IC50 (gelatinase A (MMP-2)) of 187 nM.
With O=CN(O)C(CS(=O)(=O)N1CCc2cc(C(F)(F)F)ccc2C1)C1CC1 (stereo not shown) [Example 74, N-(1-cyclopropyl-2-{[6-(trifluoromethyl)-3,4-dihydro-isoquinolin-2(1H)-yl]sulfonyl}ethyl)-N-hydroxyformamide] the IC50 (metalloelastase (MMP-12)) was 5.2 nM, the inhibition at 5 µM (MMP-14) was 76% and the IC50 (gelatinase A (MMP-2)) was 97 nM.
O=CN(O)C(CS(=O)(=O)N1CCc2ccc(-c3ccc(F)cc3)cc2C1)C1CC1 (stereo not shown) [Example 75, N-(1-cyclopropyl-2-{[7-(4-fluorophenyl)-3,4-dihydro-isoquinolin-2(1H)-yl]sulfonyl}ethyl)-N-hydroxyformamide] was tested, and the IC50 (metalloelastase (MMP-12)) was 6 nM, the inhibition at 0.1 µM (MMP-14) was 11% and the inhibition at 5 µM (MMP-14) was 92%. It also gave an IC50 (gelatinase A (MMP-2)) of 219 nM.

— patent US7879876B2, “Sulfonamide derivatives and use thereof for the modulation of metalloproteinases” (Merck Serono SA, priority 2005, dated 2011)
